Experimental data published in PubChem BioAssay (NCI).
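These data come from cells grown in 96-well plates and exposed to compound for 48 hours at five concentrations. GI50 is the concentration that inhibits growth by half. TGI: concentration producing complete growth inhibition.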

Experiments:
Assay in all cases: inhibition of tumour cell growth, NCI panel, 48 h
786-0 renal = test system: 786-0 renal
A498 renal = test system: A498 renal
A549 NSCLC = test system: A549 NSCLC
ACHN renal = test system: ACHN renal
BT-549 breast = test system: BT-549 breast
CAKI-1 renal = test system: CAKI-1 renal
CCRF-CEM leukemia = test system: CCRF-CEM leukemia
COLO 205 colon = test system: COLO 205 colon
DU-145 prostate = test system: DU-145 prostate
EKVX NSCLC = test system: EKVX NSCLC
HCC-2998 colon = test system: HCC-2998 colon
HCT-116 colon = test system: HCT-116 colon
HCT-15 colon = test system: HCT-15 colon
HL-60(TB) leukemia = test system: HL-60(TB) leukemia
HOP-62 NSCLC = test system: HOP-62 NSCLC
HOP-92 NSCLC = test system: HOP-92 NSCLC
HS 578T breast = test system: HS 578T breast
HT29 colon = test system: HT29 colon
IGROV1 ovarian = test system: IGROV1 ovarian
K-562 leukemia = test system: K-562 leukemia
KM12 colon = test system: KM12 colon
LOX IMVI melanoma = test system: LOX IMVI melanoma
M14 melanoma = test system: M14 melanoma
MALME-3M melanoma = test system: MALME-3M melanoma
MCF7 breast = test system: MCF7 breast
MDA-MB-231 breast = test system: MDA-MB-231 breast
MDA-MB-435 = test system: MDA-MB-435
MOLT-4 leukemia = test system: MOLT-4 leukemia
NCI-H226 lung = test system: NCI-H226 lung
NCI-H23 lung = test system: NCI-H23 lung
NCI-H460 lung = test system: NCI-H460 lung
NCI-H522 lung = test system: NCI-H522 lung
NCI/ADR-RES ovarian = test system: NCI/ADR-RES ovarian
OVCAR-3 ovarian = test system: OVCAR-3 ovarian
OVCAR-4 ovarian = test system: OVCAR-4 ovarian
OVCAR-5 ovarian = test system: OVCAR-5 ovarian
OVCAR-8 ovarian = test system: OVCAR-8 ovarian
PC-3 prostate = test system: PC-3 prostate
RPMI-8226 leukemia = test system: RPMI-8226 leukemia
RXF 393 renal = test system: RXF 393 renal
SF-268 CNS = test system: SF-268 CNS
SF-295 CNS = test system: SF-295 CNS
SF-539 CNS = test system: SF-539 CNS
SK-MEL-2 melanoma = test system: SK-MEL-2 melanoma
SK-MEL-28 melanoma = test system: SK-MEL-28 melanoma
SK-MEL-5 melanoma = test system: SK-MEL-5 melanoma
SK-OV-3 ovarian = test system: SK-OV-3 ovarian
SN12C renal = test system: SN12C renal
SNB-19 CNS = test system: SNB-19 CNS
SNB-75 CNS = test system: SNB-75 CNS
SR leukemia = test system: SR leukemia
SW-620 colon = test system: SW-620 colon
T-47D breast = test system: T-47D breast
TK-10 renal = test system: TK-10 renal
U251 CNS = test system: U251 CNS
UACC-257 melanoma = test system: UACC-257 melanoma
UACC-62 melanoma = test system: UACC-62 melanoma
UO-31 renal = test system: UO-31 renal

## COc1ccccc1/C=C/C(=O)c1ccc(Nc2nc(Nc3ccc(F)cc3)nc(Nc3ccc(F)cc3)n2)cc1
786-0 renal
  GI50: 2.85 µM
  TGI: 14.9 µM
A498 renal
  GI50: 13.3 µM
  TGI: 47.2 µM
A549 NSCLC
  GI50: 10.9 µM
  TGI: > 100 µM
ACHN renal
  GI50: 25.2 µM
  TGI: > 100 µM
BT-549 breast
  GI50: 13.5 µM
  TGI: > 100 µM
CAKI-1 renal
  GI50: > 100 µM
  TGI: > 100 µM
CCRF-CEM leukemia
  GI50: 5.6 µM
  TGI: > 100 µM
COLO 205 colon
  GI50: 2.55 µM
  TGI: 55.1 µM
DU-145 prostate
  GI50: 55.9 µM
  TGI: > 100 µM
EKVX NSCLC
  GI50: 38.1 µM
  TGI: > 100 µM
HCC-2998 colon
  GI50: 25.2 µM
  TGI: > 100 µM
HCT-116 colon
  GI50: 4.58 µM
  TGI: > 100 µM
HCT-15 colon
  GI50: 6.57 µM
  TGI: > 100 µM
HL-60(TB) leukemia
  GI50: 3.77 µM
  TGI: > 100 µM
HOP-62 NSCLC
  GI50: 16.3 µM
  TGI: 77.6 µM
HOP-92 NSCLC
  GI50: 7.24 µM
  TGI: 46.5 µM
HS 578T breast
  GI50: 8.29 µM
  TGI: 71.1 µM
HT29 colon
  GI50: 15.8 µM
  TGI: > 100 µM
IGROV1 ovarian
  GI50: 22.6 µM
  TGI: > 100 µM
K-562 leukemia
  GI50: 9.94 µM
  TGI: > 100 µM
KM12 colon
  GI50: 7.67 µM
  TGI: > 100 µM
LOX IMVI melanoma
  GI50: 21.1 µM
  TGI: > 100 µM
M14 melanoma
  GI50: 25.5 µM
  TGI: 86.7 µM
MALME-3M melanoma
  GI50: 20.1 µM
  TGI: 46.5 µM
MCF7 breast
  GI50: 5.45 µM
  TGI: > 100 µM
MDA-MB-231 breast
  GI50: 25.8 µM
  TGI: > 100 µM
MDA-MB-435
  GI50: 19.4 µM
  TGI: 90.7 µM
MOLT-4 leukemia
  GI50: 6.13 µM
  TGI: 97.8 µM
NCI-H226 lung
  GI50: 6.61 µM
  TGI: > 100 µM
NCI-H23 lung
  GI50: 18.9 µM
  TGI: > 100 µM
NCI-H460 lung
  GI50: 9.38 µM
  TGI: > 100 µM
NCI-H522 lung
  GI50: 23 µM
  TGI: > 100 µM
NCI/ADR-RES ovarian
  GI50: 13 µM
  TGI: > 100 µM
OVCAR-3 ovarian
  GI50: 22.2 µM
  TGI: > 100 µM
OVCAR-4 ovarian
  GI50: 65.3 µM
  TGI: > 100 µM
OVCAR-5 ovarian
  GI50: 51.9 µM
  TGI: > 100 µM
OVCAR-8 ovarian
  GI50: 9.4 µM
  TGI: > 100 µM
PC-3 prostate
  GI50: 5.49 µM
  TGI: > 100 µM
RPMI-8226 leukemia
  GI50: 3.03 µM
  TGI: 16.3 µM
RXF 393 renal
  GI50: 2.49 µM
  TGI: 9.37 µM
SF-268 CNS
  GI50: 45.7 µM
  TGI: > 100 µM
SF-295 CNS
  GI50: 14.4 µM
  TGI: 98.5 µM
SF-539 CNS
  GI50: 1.73 µM
  TGI: 17.6 µM
SK-MEL-2 melanoma
  GI50: 25.2 µM
  TGI: > 100 µM
SK-MEL-28 melanoma
  GI50: 33.6 µM
  TGI: > 100 µM
SK-MEL-5 melanoma
  GI50: 10.5 µM
  TGI: 40 µM
SK-OV-3 ovarian
  GI50: 69.7 µM
  TGI: > 100 µM
SN12C renal
  GI50: 51.2 µM
  TGI: > 100 µM
SNB-19 CNS
  GI50: 74.2 µM
  TGI: > 100 µM
SNB-75 CNS
  GI50: 50.6 µM
  TGI: > 100 µM
SR leukemia
  GI50: 4.34 µM
  TGI: > 100 µM
SW-620 colon
  GI50: 6.49 µM
  TGI: > 100 µM
T-47D breast
  GI50: 8.01 µM
  TGI: > 100 µM
TK-10 renal
  GI50: 48.6 µM
  TGI: > 100 µM
U251 CNS
  GI50: 9.8 µM
  TGI: > 100 µM
UACC-257 melanoma
  GI50: 22 µM
  TGI: 66.6 µM
UACC-62 melanoma
  GI50: 55.5 µM
  TGI: > 100 µM
UO-31 renal
  GI50: 9.52 µM
  TGI: > 100 µM

## COc1cc(Nc2cc(O)c3c(=O)cc(-c4ccccc4)oc3c2)cc(OC)c1
786-0 renal
  GI50: 1.34 µM
  TGI: 21.9 µM
A498 renal
  GI50: 0.351 µM
  TGI: 9.03 µM
A549 NSCLC
  GI50: 0.788 µM
  TGI: 97.3 µM
ACHN renal
  GI50: 0.628 µM
  TGI: > 100 µM
BT-549 breast
  GI50: 0.651 µM
  TGI: > 52.3 µM
CAKI-1 renal
  GI50: 0.335 µM
  TGI: 16.8 µM
CCRF-CEM leukemia
  GI50: 0.411 µM
  TGI: > 100 µM
COLO 205 colon
  GI50: 4.68 µM
  TGI: > 100 µM
DU-145 prostate
  GI50: 0.476 µM
  TGI: 20.9 µM
EKVX NSCLC
  GI50: 0.769 µM
  TGI: > 100 µM
HCC-2998 colon
  GI50: 2.31 µM
  TGI: > 54 µM
HCT-116 colon
  GI50: 0.407 µM
  TGI: > 100 µM
HCT-15 colon
  GI50: 0.104 µM
  TGI: > 100 µM
HL-60(TB) leukemia
  GI50: 0.355 µM
HOP-62 NSCLC
  GI50: 0.795 µM
  TGI: 20.9 µM
HOP-92 NSCLC
  GI50: 0.944 µM
  TGI: 17.7 µM
HS 578T breast
  GI50: 0.338 µM
HT29 colon
  GI50: 3.33 µM
  TGI: > 36.9 µM
IGROV1 ovarian
  GI50: 0.409 µM
  TGI: 32.4 µM
K-562 leukemia
  GI50: 0.311 µM
  TGI: > 100 µM
KM12 colon
  GI50: 0.282 µM
  TGI: > 39.2 µM
LOX IMVI melanoma
  GI50: 0.581 µM
  TGI: > 100 µM
M14 melanoma
  GI50: 0.466 µM
  TGI: > 100 µM
MALME-3M melanoma
  GI50: 0.754 µM
  TGI: > 100 µM
MCF7 breast
  GI50: 0.0357 µM
  TGI: > 100 µM
MDA-MB-231 breast
  GI50: 0.964 µM
  TGI: 18.4 µM
MDA-MB-435
  GI50: 0.147 µM
  TGI: 0.498 µM
MOLT-4 leukemia
  GI50: 0.595 µM
  TGI: > 100 µM
NCI-H226 lung
  GI50: 2.57 µM
  TGI: 48 µM
NCI-H23 lung
  GI50: 0.922 µM
  TGI: 40 µM
NCI-H460 lung
  GI50: 0.39 µM
  TGI: > 35.3 µM
NCI-H522 lung
  GI50: 0.203 µM
  TGI: 4.39 µM
NCI/ADR-RES ovarian
  GI50: 0.437 µM
  TGI: 25 µM
OVCAR-3 ovarian
  GI50: 0.274 µM
  TGI: 1.64 µM
OVCAR-4 ovarian
  GI50: 8.61 µM
  TGI: 41.9 µM
OVCAR-5 ovarian
  GI50: 1.29 µM
  TGI: > 47.5 µM
OVCAR-8 ovarian
  GI50: 0.9 µM
  TGI: 23.9 µM
PC-3 prostate
  GI50: 0.815 µM
  TGI: > 52.1 µM
RPMI-8226 leukemia
  GI50: 0.471 µM
  TGI: > 100 µM
RXF 393 renal
  GI50: 0.329 µM
  TGI: 1.83 µM
SF-268 CNS
  GI50: 0.909 µM
  TGI: 30.9 µM
SF-295 CNS
  GI50: 0.389 µM
  TGI: 8.33 µM
SF-539 CNS
  GI50: 0.338 µM
  TGI: 1.93 µM
SK-MEL-2 melanoma
  GI50: 0.537 µM
  TGI: 40.4 µM
SK-MEL-28 melanoma
  GI50: 2.84 µM
  TGI: > 100 µM
SK-MEL-5 melanoma
  GI50: 0.169 µM
  TGI: 9.97 µM
SK-OV-3 ovarian
  GI50: 0.548 µM
  TGI: 18.6 µM
SN12C renal
  GI50: 0.736 µM
  TGI: 75.5 µM
SNB-19 CNS
  GI50: 0.533 µM
  TGI: 22.8 µM
SNB-75 CNS
  GI50: 0.193 µM
  TGI: 0.75 µM
SR leukemia
  GI50: 0.253 µM
  TGI: > 100 µM
SW-620 colon
  GI50: 0.377 µM
  TGI: > 100 µM
T-47D breast
  GI50: 0.251 µM
  TGI: > 100 µM
TK-10 renal
  GI50: 4.94 µM
  TGI: 46.6 µM
U251 CNS
  GI50: 0.484 µM
  TGI: 18.3 µM
UACC-257 melanoma
  GI50: 39.1 µM
  TGI: > 100 µM
UACC-62 melanoma
  GI50: 0.387 µM
  TGI: > 37.4 µM
UO-31 renal
  GI50: 0.763 µM
  TGI: 30.7 µM
